From PMC8509676, “Residual Helicity at the Active Site of the Histidine Phosphocarrier, HPr, Modulates Binding Affinity to Its Natural Partners” (International Journal of Molecular Sciences, 2021)

Tests used:
[1] = Far-UV CD, helicity from molar ellipticity at 222 nm; type: physicochemical; conditions: 5 °C
Experimental: Spectra were collected on a Jasco J810 spectropolarimeter (Jasco, Tokyo, Japan) interfaced with a Peltier unit. Far-UV measurements were performed with samples placed in quartz cells with a 0.1 cm path length (Hellma, Kruibeke, Belgium), with a response time of 2 s, a band width of 1 nm, and a scan velocity of 50 nm/min. For all peptides, a wide range of concentrations (10–50 µM) was used to determine whether either the shape or the intensity of the spectra was concentration-dependent. None of those features changed in the concentration range explored. The experiments in aqueous solution were acquired at 5 °C in Tris buffer (50 mM, pH 7.0). Raw ellipticity was converted to molar ellipticity, [Θ], from which the fraction of helical populations was determined as previously described. For the experiments in the presence of each protein (repeated three times), the same concentration used in the fluorescence experiments was used, and the experimental set-up was the same as described above for the isolated peptides.

Rsd^ec [2] = molecular target: T1, Rsd^ec (Escherichia coli, UniProt P0AFX4); assay: Fluorescence titration, peptide/Rsd^ec binding
T1 construct: His-tag; made in house; host or cells: E. coli C41
T1 sequence (P0AFX4 whole entry): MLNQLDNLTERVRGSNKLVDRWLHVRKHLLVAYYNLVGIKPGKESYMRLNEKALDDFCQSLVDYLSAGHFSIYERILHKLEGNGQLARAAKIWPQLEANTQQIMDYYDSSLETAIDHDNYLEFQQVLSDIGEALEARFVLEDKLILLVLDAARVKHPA
Experimental: Spectra were collected at 25 °C on a Cary spectrofluorometer (Agilent, Madrid, Spain), with a Peltier temperature controller. The samples were prepared the day before and left overnight at 5 °C. Before measurements, the samples were incubated for 1 h at 25 °C. A quartz cell with a 1 cm path length (Hellma, Kruibeke, Belgium) was used. In all the experiments, the slit widths were equal to 5 nm for both the excitation and emission lights. Protein samples were excited at either 280 or 295 nm. The experiments were performed between 300 and 400 nm. The signal was acquired for 1 s, and the increment of wavelength was set to 1 nm. Appropriate blank corrections were made in all spectra. For the binding experiments, 3 µM of either protein (Rsd^ec or EIN^sc) and 15 µM of the corresponding peptide were mixed. The experiments in aqueous solution were acquired in Tris buffer (50 mM, pH 7.0).
For the titration between either of the two proteins (Rsd^ec or EIN^sc) and the corresponding peptide, increasing amounts of the latter, in a concentration range of 0 to 30 µM, were added to a solution with a fixed concentration of each protein (3 µM). The experimental set-up was identical to that described above, including preparation of the samples the day before and their storage overnight at 5 °C. Before measurements, the samples were incubated for 1 h at 25 °C. The fluorescence of a blank solution containing only the corresponding peptide was subtracted for each data point. […] The Kd was determined by following the fluorescence at selected wavelengths and fitting experimental data to Equation (1). […] At all used concentrations, the fluorescence was corrected by the inner-filter effects.

[3] = system: Staphylococcus aureus CECT59; type: cell-based; conditions: S. aureus CECT59, two-fold broth microdilution (CLSI), MH broth, 24 h, 37 °C; triplicate (sd = 0); highest concentration tested 400 µM
Experimental: The CECT59 strain of the Gram-positive bacteria Staphylococcus aureus from the Spanish Type Culture Collection (Colección Española de Cultivos Tipo, CECT, Universitat de Valencia, Spain) was used for determining its sensitivity to the HPr peptides studied in this work. The MIC for each peptide was determined by the two-fold broth microdilution method according to the Clinical and Laboratory Standards Institute (CLSI) guidelines, with some modifications as previously described. For this testing procedure, a bacteria colony previously grown in MH agar plates was isolated and incubated in MH broth at 37 °C overnight to prepare the bacteria inoculum to be used in each assay. Then, the bacteria suspensions were adjusted to a 100× dilution of an 0.5 McFarland turbidity standard in MH broth and incubated with different concentrations of each peptide in round-bottom 96-well polystyrene plates (Deltalab S.L., Rubí, Spain) (50 μL/well) for 24 h at 37 °C. The peptide concentrations employed comprised two-fold dilutions starting at either 120, 160, or 400 µM, depending on the experiment. […] All assays were performed in triplicate.

[4] = TFE titration followed by far-UV CD (disordered-helical two-state equilibrium); type: physicochemical
Experimental: For experiments in the presence of TFE, the same set of experimental parameters was used. Cosolvent concentrations were indicated in percentage of volume (%). […] The peptide concentration for these experiments was 20 µM.

Rsd^ec [5] = molecular target: T1, Rsd^ec; assay: Isothermal titration calorimetry (ITC), peptide/Rsd^ec binding; conditions: ITC, 25 °C, 50 mM Tris pH 7.0
Experimental: The experimental set-up and data processing of ITC experiments has been described previously. Rsd^ec or EIN^sc (at 10–20 µM) were injected into the cell, and the peptides in the syringe (100–200 µM) in 50 mM of Tris buffer, pH 7.0. The temperature for all the experiments was 25 °C. Typically, each calorimetric titration consisted of performing 19 injections with 2 μL volume, with a time spacing of 150 s, while stirring at 750 rpm in an Auto-iTC200 high-sensitivity microcalorimeter (MicroCal, Malvern-Panalytical, Malvern, UK). The results were analysed by applying a model that considered a single binding site (assuming a 1:1 stoichiometry) for the peptide/EIN^sc or peptide/Rsd^ec interaction using a nonlinear least-squares regression analysis in Origin 7.0 (OriginLab, Northampton, MA, USA) with user-defined fitting routines.

[6] = TFE titration by far-UV CD, 20 µM peptide, two-state fit, fitting errors

Ac-GWAEGLHARPASIFVRAATATG-NH2 [Wild-type]
[Θ]^222 (value in parentheses) ([1]; 50 mM Tris pH 7.0): −612.44 deg cm^2 dmol^−1 | Helicity (%) ([1]; 50 mM Tris pH 7.0, from [Θ]^222 assuming −39,500 deg cm^2 dmol^−1 for a fully formed α-helix): 1.6% | Kd (Rsd^ec [2]): 5 µM | MIC [3]: 40 µM | [TFE]1/2 [4, 6]: 23.2 ± 0.5 % (v/v) | m [4, 6]: 166 ± 23 cal/mol (% (v/v)) | percentage of helical population (in parentheses) ([4]; from ∆G^water assuming a two-state conformational equilibrium): 0.10% | ∆G^water ([4]; product of m- and [TFE]1/2 values, error propagation): 3.8 ± 0.5 kcal/mol | ΔH, Rsd^ec (Rsd^ec [5]): 1.3 ± 0.4 kcal/mol
